Reference: ChEMBL document CHEMBL4049442, “Design, Synthesis, and Biological Evaluation of Dimorpholine Substituted Thienopyrimidines as Potential Class I PI3K/mTOR Dual Inhibitors” (J Med Chem, 2017)
Calls of active or inactive are those of the source. No cut-off for these calls is given here.

Legend:
[1] = target: PI3-kinase p110-alpha/p85-alpha (Homo sapiens, UniProt P42336); assay: Inhibition of full length recombinant human N-terminal His-tagged PI3K p110alpha/p85alpha expressed in baculovirus using PIP2 as substrate after 1 hr by kinase-glo luminescence assay
PI3-kinase p110-alpha/p85-alpha, sequence (P27986 whole entry): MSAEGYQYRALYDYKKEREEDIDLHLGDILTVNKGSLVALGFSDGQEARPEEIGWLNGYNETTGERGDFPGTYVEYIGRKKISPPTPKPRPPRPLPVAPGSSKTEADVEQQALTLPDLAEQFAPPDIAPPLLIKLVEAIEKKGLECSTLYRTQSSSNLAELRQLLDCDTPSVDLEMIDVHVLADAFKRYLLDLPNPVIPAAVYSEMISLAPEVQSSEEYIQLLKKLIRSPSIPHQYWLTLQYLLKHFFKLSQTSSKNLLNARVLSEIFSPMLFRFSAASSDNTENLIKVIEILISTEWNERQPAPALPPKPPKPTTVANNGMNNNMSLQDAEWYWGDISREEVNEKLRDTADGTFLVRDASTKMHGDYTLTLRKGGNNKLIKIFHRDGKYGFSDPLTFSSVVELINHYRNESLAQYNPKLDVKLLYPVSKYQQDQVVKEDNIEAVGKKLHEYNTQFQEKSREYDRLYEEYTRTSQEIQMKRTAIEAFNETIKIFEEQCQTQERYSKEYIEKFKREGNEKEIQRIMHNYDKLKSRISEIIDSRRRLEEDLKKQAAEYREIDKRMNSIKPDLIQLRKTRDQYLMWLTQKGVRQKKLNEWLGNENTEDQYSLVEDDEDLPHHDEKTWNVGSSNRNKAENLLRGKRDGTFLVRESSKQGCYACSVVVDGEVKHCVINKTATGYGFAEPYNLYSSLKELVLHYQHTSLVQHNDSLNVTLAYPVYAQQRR
PI3-kinase p110-alpha/p85-alpha, sequence (P42336 whole entry): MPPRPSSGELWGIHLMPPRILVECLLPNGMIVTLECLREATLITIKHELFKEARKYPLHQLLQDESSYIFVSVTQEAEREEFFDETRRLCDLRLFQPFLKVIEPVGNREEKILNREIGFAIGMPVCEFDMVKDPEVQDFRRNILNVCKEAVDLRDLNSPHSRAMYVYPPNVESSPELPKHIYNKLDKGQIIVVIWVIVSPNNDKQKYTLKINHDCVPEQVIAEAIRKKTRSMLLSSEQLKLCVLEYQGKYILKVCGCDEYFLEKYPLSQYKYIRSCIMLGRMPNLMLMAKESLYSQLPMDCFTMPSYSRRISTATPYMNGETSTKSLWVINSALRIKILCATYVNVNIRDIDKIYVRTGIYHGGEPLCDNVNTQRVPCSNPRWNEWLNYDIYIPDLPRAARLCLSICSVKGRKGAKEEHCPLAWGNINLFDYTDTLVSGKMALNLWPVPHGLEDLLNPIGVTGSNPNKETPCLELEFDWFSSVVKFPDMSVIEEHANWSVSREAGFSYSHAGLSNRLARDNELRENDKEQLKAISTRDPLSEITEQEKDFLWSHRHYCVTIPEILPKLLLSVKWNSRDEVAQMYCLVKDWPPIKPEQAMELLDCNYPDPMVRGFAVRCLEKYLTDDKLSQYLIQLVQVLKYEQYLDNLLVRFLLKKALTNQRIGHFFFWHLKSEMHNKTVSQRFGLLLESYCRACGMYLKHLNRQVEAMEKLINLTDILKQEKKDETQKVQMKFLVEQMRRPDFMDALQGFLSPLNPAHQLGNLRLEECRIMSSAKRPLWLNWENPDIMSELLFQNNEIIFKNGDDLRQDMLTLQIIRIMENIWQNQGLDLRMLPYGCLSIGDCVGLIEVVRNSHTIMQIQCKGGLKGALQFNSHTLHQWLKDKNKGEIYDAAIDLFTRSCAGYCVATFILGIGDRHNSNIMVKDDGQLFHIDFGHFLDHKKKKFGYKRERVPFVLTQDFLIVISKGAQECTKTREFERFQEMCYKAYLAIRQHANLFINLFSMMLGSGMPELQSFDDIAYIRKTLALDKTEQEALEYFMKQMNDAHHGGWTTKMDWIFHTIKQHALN

[2] = target: Serine/threonine-protein kinase mTOR (Homo sapiens, UniProt P42345); assay: Inhibition of recombinant human N-terminal FLAG-tagged mTOR (1362 to end residues) expressed in baculovirus infected Sf21 insect cells assessed as reduction in ULight-4E-BP1 phosphorylation after 30 mins by lance ultra assay
PC-3 = assay: cells; details: Homo sapiens, PC-3, 72 h
LNCaP = assay: cells; details: Homo sapiens, 72 h
U-87 MG [3] = assay: cells; details: Homo sapiens, 72 h
SK-OV-3 [4] = assay: cells; details: Homo sapiens, SK-OV-3, 72 h
SK-OV-3 [5] = assay: Antitumor activity against human SKOV3 cells xenografted in BALB/c nude mouse assessed as tumor growth inhibition at 30 mg/kg/day, po for 24 days measured every 3 days during compound dosing relative to control; assay type: functional
U-87 MG [6] = assay: Antitumor activity against human U87MG cells xenografted in BALB/c nude mouse assessed as tumor growth inhibition at 20 mg/kg/day, po for 18 days measured every 3 days during compound dosing relative to control; assay type: functional; details: U-87MG ATCC
[7] = target: Phosphatidylinositol 4,5-bisphosphate 3-kinase catalytic subunit gamma isoform (Homo sapiens, UniProt P48736); assay: Inhibition of recombinant human His-tagged PI3K p110gamma expressed in baculovirus using PIP2 as substrate after 1 hr by kinase-glo luminescence assay
Phosphatidylinositol 4,5-bisphosphate 3-kinase catalytic subunit gamma isoform, sequence (P48736 whole entry, canonical isoform): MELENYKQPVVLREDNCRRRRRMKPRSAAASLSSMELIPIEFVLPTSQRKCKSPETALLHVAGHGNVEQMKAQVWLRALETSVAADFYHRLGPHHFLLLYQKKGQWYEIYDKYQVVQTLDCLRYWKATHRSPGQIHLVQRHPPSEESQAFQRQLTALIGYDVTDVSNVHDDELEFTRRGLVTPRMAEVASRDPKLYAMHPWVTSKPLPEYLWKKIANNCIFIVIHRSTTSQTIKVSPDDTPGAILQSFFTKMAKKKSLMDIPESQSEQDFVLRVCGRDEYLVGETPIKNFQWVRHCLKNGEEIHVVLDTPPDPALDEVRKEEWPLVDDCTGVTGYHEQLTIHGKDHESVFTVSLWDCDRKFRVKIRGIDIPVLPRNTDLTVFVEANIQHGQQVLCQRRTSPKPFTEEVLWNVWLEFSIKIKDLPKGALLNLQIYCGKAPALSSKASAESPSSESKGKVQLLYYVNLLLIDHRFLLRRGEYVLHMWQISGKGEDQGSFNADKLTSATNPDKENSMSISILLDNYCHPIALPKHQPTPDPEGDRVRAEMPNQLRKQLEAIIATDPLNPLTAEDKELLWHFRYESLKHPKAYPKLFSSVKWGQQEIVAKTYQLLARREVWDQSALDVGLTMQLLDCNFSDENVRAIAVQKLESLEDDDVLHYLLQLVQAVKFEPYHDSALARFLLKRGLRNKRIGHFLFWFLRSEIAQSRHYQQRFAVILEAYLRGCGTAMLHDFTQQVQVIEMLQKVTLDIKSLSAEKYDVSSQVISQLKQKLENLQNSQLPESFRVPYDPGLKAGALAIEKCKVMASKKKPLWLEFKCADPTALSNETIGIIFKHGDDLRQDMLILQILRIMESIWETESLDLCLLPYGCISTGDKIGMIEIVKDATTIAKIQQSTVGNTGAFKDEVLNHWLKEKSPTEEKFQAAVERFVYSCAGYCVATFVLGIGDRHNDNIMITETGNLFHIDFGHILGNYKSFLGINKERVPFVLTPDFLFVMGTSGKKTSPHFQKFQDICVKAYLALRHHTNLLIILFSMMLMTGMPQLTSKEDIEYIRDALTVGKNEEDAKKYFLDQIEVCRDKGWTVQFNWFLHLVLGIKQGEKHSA

[8] = target: Phosphatidylinositol 4,5-bisphosphate 3-kinase catalytic subunit beta isoform (Homo sapiens, UniProt P42338); assay: Inhibition of PI3Kbeta (unknown origin) using PIP2 as substrate after 1 hr by ADP-Glo luminescence assay
Phosphatidylinositol 4,5-bisphosphate 3-kinase catalytic subunit beta isoform, sequence (P42338 whole entry, canonical isoform): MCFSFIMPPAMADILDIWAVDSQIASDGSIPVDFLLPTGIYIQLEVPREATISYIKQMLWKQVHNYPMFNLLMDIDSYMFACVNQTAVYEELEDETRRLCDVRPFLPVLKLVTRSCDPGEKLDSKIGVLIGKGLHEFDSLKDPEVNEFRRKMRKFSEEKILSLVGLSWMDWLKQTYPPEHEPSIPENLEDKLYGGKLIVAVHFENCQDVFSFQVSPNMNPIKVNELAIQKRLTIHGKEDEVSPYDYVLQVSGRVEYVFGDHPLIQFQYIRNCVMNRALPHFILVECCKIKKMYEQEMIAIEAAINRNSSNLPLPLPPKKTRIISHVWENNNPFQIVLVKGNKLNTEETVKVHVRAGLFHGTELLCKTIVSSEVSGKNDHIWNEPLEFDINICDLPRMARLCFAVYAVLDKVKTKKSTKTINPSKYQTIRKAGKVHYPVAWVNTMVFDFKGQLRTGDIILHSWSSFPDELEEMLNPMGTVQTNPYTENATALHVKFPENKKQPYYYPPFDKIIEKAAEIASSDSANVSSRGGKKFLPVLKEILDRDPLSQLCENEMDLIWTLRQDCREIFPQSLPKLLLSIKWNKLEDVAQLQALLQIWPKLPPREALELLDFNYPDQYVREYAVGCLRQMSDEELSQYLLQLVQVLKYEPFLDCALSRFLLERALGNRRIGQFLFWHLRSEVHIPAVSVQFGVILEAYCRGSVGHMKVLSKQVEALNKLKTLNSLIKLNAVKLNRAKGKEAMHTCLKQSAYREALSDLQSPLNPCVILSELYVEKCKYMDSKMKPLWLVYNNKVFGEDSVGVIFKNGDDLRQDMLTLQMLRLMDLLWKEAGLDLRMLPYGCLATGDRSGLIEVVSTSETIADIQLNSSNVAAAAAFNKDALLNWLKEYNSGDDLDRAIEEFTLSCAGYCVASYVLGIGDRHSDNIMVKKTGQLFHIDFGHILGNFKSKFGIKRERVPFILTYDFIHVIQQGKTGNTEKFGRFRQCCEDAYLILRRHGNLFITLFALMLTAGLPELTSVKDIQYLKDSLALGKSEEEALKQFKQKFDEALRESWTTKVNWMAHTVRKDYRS

[9] = target: PI3-kinase p110-delta/p85-alpha (Homo sapiens, UniProt O00329); assay: Inhibition of recombinant full length human N-terminal His6-tagged PI3K p110delta/p85alpha expressed in baculovirus infected Sf21 cells using PIP2 as substrate after 2 hrs by kinase-glo luminescence assay
PI3-kinase p110-delta/p85-alpha, sequence (P27986 whole entry): as the sequence (P27986 whole entry) above
PI3-kinase p110-delta/p85-alpha, sequence (O00329 whole entry): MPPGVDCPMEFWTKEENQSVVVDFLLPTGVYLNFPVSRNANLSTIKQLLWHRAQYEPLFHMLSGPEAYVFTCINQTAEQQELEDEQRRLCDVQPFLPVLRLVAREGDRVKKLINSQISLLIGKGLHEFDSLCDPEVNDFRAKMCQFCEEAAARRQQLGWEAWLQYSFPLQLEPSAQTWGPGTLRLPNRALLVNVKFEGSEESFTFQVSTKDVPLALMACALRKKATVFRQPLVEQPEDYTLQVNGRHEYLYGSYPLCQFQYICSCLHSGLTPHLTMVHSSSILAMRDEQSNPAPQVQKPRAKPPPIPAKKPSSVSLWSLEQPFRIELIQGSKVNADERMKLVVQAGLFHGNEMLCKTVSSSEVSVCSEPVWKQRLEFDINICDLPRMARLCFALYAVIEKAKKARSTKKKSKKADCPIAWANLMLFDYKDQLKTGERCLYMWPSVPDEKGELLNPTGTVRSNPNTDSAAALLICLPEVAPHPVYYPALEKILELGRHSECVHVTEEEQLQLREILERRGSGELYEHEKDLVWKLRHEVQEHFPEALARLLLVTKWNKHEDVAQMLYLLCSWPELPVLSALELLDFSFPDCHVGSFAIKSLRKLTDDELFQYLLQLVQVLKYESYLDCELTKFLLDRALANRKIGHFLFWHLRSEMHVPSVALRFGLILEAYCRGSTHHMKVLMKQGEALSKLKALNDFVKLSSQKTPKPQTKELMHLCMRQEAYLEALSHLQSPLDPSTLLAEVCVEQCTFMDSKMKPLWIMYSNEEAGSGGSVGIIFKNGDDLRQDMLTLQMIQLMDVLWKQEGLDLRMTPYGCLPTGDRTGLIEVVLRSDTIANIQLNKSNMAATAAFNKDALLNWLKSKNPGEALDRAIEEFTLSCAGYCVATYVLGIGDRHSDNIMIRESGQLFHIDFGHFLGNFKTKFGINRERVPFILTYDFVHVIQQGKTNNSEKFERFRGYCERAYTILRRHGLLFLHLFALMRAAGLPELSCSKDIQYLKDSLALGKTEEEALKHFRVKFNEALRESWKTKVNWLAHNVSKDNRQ

Row | Compound | IC50 [1] [nM] | IC50 [2] [nM] | IC50 (PC-3) [nM] | IC50 (LNCaP) [nM] | IC50 (U-87 MG [3]) [nM] | IC50 (SK-OV-3 [4]) [nM] | IC50 [7] [nM] | IC50 [8] [nM] | IC50 [9] [nM] | TGI (SK-OV-3 [5]) | TGI (U-87 MG [6])
1 | C[C@@H]1CN(c2nc(N3CCOCC3)c3sc(-c4ccoc4)cc3n2)C[C@H](C)O1 | 3560 | 222 | 5920 | 6770 | > 25000 | 21800 |  |  |  |  | 
2 | C[C@@H]1CN(c2nc(N3CCOCC3)c3sc(-c4ccccc4)cc3n2)C[C@H](C)O1 | > 10000 | > 2000 |  |  |  |  |  |  |  |  | 
3 | c1cc2c(N3CCOCC3)nc(N3CCOCC3)nc2[nH]1 | 6180 | > 2000 |  |  |  |  |  |  |  |  | 
4 | COc1ccc(-c2cc3nc(N4C[C@@H](C)O[C@@H](C)C4)nc(N4CCOCC4)c3s2)cn1 | > 10000 | > 2000 |  |  |  |  |  |  |  |  | 
5 | C[C@@H]1CN(c2nc(N3CCOCC3)c3sc(-c4cnn(C)c4)cc3n2)C[C@H](C)O1 | 4950 | > 2000 |  |  |  |  |  |  |  |  | 
6 | CS(=O)(=O)N1CCN(Cc2cc3nc(-c4cccc5[nH]ncc45)nc(N4CCOCC4)c3s2)CC1 |  |  |  |  |  |  |  |  |  | inactive | inactive
7 | C[C@@H]1CN(c2nc(N3CCOCC3)c3sc(-c4ccco4)cc3n2)C[C@H](C)O1 | 2200 | 109 | > 25000 | 2640 | 12800 | 5910 |  |  |  |  | 
8 | C[C@@H]1CN(c2nc(N3CCOCC3)c3sc(-c4ccncc4)cc3n2)C[C@H](C)O1 | > 10000 | > 2000 |  |  |  |  |  |  |  |  | 
9 | CS(=O)(=O)N1CCN(Cc2cc3nc(N4CCOCC4)nc(N4CCOCC4)c3s2)CC1 | 4820 | > 2000 |  |  |  |  |  |  |  |  | 
10 | C[C@@H]1CN(c2nc(N3CCOCC3)c3sc(-c4ccsc4)cc3n2)C[C@H](C)O1 | > 10000 | > 2000 |  |  |  |  |  |  |  |  | 
11 | C[C@@H]1CN(c2nc(N3CCOCC3)c3sc(-c4cncnc4)cc3n2)C[C@H](C)O1 | 9470 | > 2000 |  |  |  |  |  |  |  |  | 
12 | c1nc2c(N3CCOCC3)nc(N3CCOCC3)nc2[nH]1 | > 10000 | > 2000 |  |  |  |  |  |  |  |  | 
13 | C[C@@H]1CN(c2nc(N3CCOCC3)c3sc(-c4ccccc4O)cc3n2)C[C@H](C)O1 | > 10000 | 225 | 2490 | 2380 | 9880 | 1800 |  |  |  |  | 
14 | C[C@@H]1CN(c2nc(N3CCOCC3)c3sc(-c4cccc5[nH]ncc45)cc3n2)C[C@H](C)O1 | > 10000 | > 2000 |  |  |  |  |  |  |  |  | 
15 | C[C@@H]1CN(c2nc(N3CCOCC3)c3sc(-c4ccc[nH]4)cc3n2)C[C@H](C)O1 | 4180 | 172 | 3050 | 2390 | > 25000 | 18900 |  |  |  |  | 

Further lines, with some results ahead:

Row | IC50 [1] [nM] | IC50 [2] [nM] | IC50 (PC-3) [nM] | IC50 (LNCaP) [nM] | IC50 (U-87 MG [3]) [nM] | IC50 (SK-OV-3 [4]) [nM] | IC50 [7] [nM] | IC50 [8] [nM] | IC50 [9] [nM] | Compound | TGI (SK-OV-3 [5]) | TGI (U-87 MG [6])
16 | 216 | > 2000 | 6000 | 2060 | 17500 | 8240 |  |  |  | OCc1cc2nc(N3CCOCC3)nc(N3CCOCC3)c2s1 |  | 
17 | 675 | > 2000 |  |  |  |  |  |  |  | CC(=O)c1cc2nc(N3CCOCC3)nc(N3CCOCC3)c2s1 |  | 
18 | 239 | > 2000 | 2970 | 1600 | > 25000 | 9120 |  |  |  | CCC(O)c1cc2nc(N3C[C@@H](C)O[C@@H](C)C3)nc(N3CCOCC3)c2s1 (stereo not given in full) |  | 
19 | 165 | 70 | 7000 | 1130 | > 25000 | 2900 |  |  |  | C[C@@H]1CN(c2nc(N3CCOCC3)c3sc(-c4ccc(N)nc4)cc3n2)C[C@H](C)O1 |  | 
20 | 281 | 612 | 12800 | 3000 | > 25000 | 15700 |  |  |  | C[C@@H]1CN(c2nc(N3CCOCC3)c3sc(-c4cccnc4)cc3n2)C[C@H](C)O1 |  | 
21 | 995 | 427 | > 25000 | 4050 | > 25000 | 10100 |  |  |  | C[C@@H]1CN(c2nc(N3CCOCC3)c3sc(-c4cn[nH]c4)cc3n2)C[C@H](C)O1 |  | 
22 | 122 | 632 | 1380 | 2590 | 3290 | 1220 |  |  |  | CC(O)c1cc2nc(N3C[C@@H](C)O[C@@H](C)C3)nc(N3CCOCC3)c2s1 (stereo not given in full) |  | 
23 | 1870 | > 2000 |  |  |  |  |  |  |  | c1cc2nc(N3CCOCC3)nc(N3CCOCC3)c2s1 |  | 
24 | 197 | 73 | 1740 | 1100 | 8760 | 830 |  |  |  | Cc1c(-c2ccn[nH]2)sc2c(N3CCOCC3)nc(N3C[C@@H](C)O[C@@H](C)C3)nc12 |  | 
25 | 237 | > 2000 | > 25000 | 23600 | 2440 | > 25000 |  |  |  | O=C(O)c1cc2nc(N3CCOCC3)nc(N3CCOCC3)c2s1 |  | 
26 | 249 | 603 | 2260 | 4200 | > 25000 | 2180 |  |  |  | OCc1cc2nc(N3CCSCC3)nc(N3CCOCC3)c2s1 |  | 
27 | 1030 | > 2000 |  |  |  |  |  |  |  | CN1CCN(c2nc(N3CCOCC3)c3sc(CO)cc3n2)CC1 |  | 
28 | 191 | 865 | 4320 | 3270 | > 25000 | 7110 |  |  |  | C[C@@H]1CN(c2nc(N3CCOCC3)c3sc(C(N)=O)cc3n2)C[C@H](C)O1 |  | 
29 | 2050 | > 2000 |  |  |  |  |  |  |  | C[C@@H]1CN(c2nc(N3CCOCC3)c3sc(C(O)Cc4ccccc4)cc3n2)C[C@H](C)O1 (stereo not given in full) |  | 
30 | 694 | 270 | 2750 | 4430 | 4450 | 990 |  |  |  | C[C@@H]1CN(c2nc(N3CCOCC3)c3sc(-c4ccccn4)cc3n2)C[C@H](C)O1 |  | 
31 | 1240 | > 2000 |  |  |  |  |  |  |  | C[C@@H]1CN(c2nc(N3CCOCC3)c3sc(-c4ccnn4C)cc3n2)C[C@H](C)O1 |  | 
32 | 299 | 335 | 1320 | 2630 | > 25000 | 2170 |  |  |  | C[C@@H]1COCCN1c1nc(N2CCOCC2)c2sc(CO)cc2n1 |  | 
33 | 681 | 336 | 2670 | 1820 | 21200 | 2890 |  |  |  | OCc1cc2nc(N3CCOc4ccccc43)nc(N3CCOCC3)c2s1 |  | 
34 | 216 | 463 | 1050 | 1780 | 6590 | 4990 |  |  |  | C[C@@H]1CN(c2nc(N3CCOCC3)c3sc(CO)cc3n2)C[C@H](C)O1 |  | 
35 | 24 | 424 | 3670 | 4530 | > 25000 | 10000 | 35 | 317 | 171 | C[C@@H]1CN(c2nc(N3CCOCC3)c3sc(-c4cnc(N)nc4)cc3n2)C[C@H](C)O1 |  | 
36 | 279 | > 2000 | 15000 | 6160 | > 25000 | 23300 |  |  |  | CS(=O)(=O)N1CCN(c2nc(N3CCOCC3)c3sc(CO)cc3n2)CC1 |  | 
